Test results from ChEMBL document CHEMBL6127148, “Discovery of l-Lysine Dioxalate (LH1513) as a Novel Inhibitor of Calcium Oxalate Crystallization for Hyperoxaluria” (ACS Med Chem Lett, 2024).
pEC50: −log10 of the molar value. Activity calls are given as the source filed them. No cut-off for these calls is given here.

Legend:
[1] = test system: Calcium oxalate; assay: Inhibition of calcium oxalate crystallization in supersaturated solution of CaOx containing of 250 uM of CaCl2 and 250 uM of Na2C2O4 incubated for 72 hrs at pH 6.8 HEPES buffer by fluorescence-based assay
[2] = Oral bioavailability in Agxt-knockout C57BL/6 mouse assessed as LH1513 level in plasma at 150 micromol/kg administered as triester prodrug and measured after 4 hrs; type: ADME, organism-based; conditions: in vivo, at 150 µmol/kg
[3] = test system: Calcium oxalate; assay: Inhibition of calcium oxalate crystallization in COM (100) face assessed as twinned with monoclinic morphology at EC50 concentration by scanning electron microscopic analysis
[4] = test system: Calcium oxalate; assay: Inhibition of calcium oxalate crystallization in COM (010) face assessed as growth on the (121-) steps at EC50 concentration incubated for 20 min by atomic force microscopic analysis
[5] = Drug excretion in Agxt-knockout C57BL/6 mouse urine at 150 micromol/kg, po measured after 8 hrs; type: ADME, organism-based; conditions: in vivo, dose 150 µmol/kg
[6] = test system: Calcium oxalate; assay: Inhibition of calcium oxalate crystallization in supersaturated solution of CaOx containing of 1 mM of CaCl2 and 250 uM of Na2C2O4 incubated for 72 hrs at pH 6.8 HEPES buffer by spectrophotometric method
[7] = test system: Mus musculus; assay: Anti-hyperoxaluria Agxt-knockout C57BL/6 mouse model of hyperoxaluria assessed as decrease in CaOx crystals in urine at 150 micromol/kg, po administered as triester prodrug for 6 weeks by light microscopic analysis; type: functional, organism-based; conditions: dose 150.0 µmol/kg
[8] = Drug metabolism in Agxt-knockout C57BL/6 mouse assessed as LH1513 concentration in urine at 150 micromol/kg, po administered as triester prodrug and measured after 8 hrs; type: ADME, organism-based; conditions: in vivo, dose 150 µmol/kg, read-out: Ct
[9] = test system: Calcium oxalate; assay: Inhibition of calcium oxalate crystallization in COM (100) face assessed as platy morphology at EC50 concentration by scanning electron microscopic analysis
[10] = test system: Calcium oxalate; assay: Inhibition of calcium oxalate crystallization in COM (100) face assessed as crystals flattened at the apexes at EC50 concentration by scanning electron microscopic analysis

Compound: O=C(O)C(=O)NCCNC(=O)C(=O)O
- pEC50 [1]: 4.42

Compound: O=C([O-])C(=O)NCCCC[C@H](NC(=O)C(=O)[O-])C(=O)[O-].[Na+].[Na+].[Na+]
- F [2]: 3%
- pEC50 [1]: 4.66
- inhibition [3]: Active
- inhibition [4]: Active
- Drug excretion [5]: Active
- pEC50 [6]: 4.20
- Activity [7]: Active
- concentration [8]: ~30 µM

Compound: NCCNC(=O)C(=O)O
- pEC50 [1]: 3.95

Compound: O=C([O-])CC(O)(CC(=O)[O-])C(=O)[O-].[Na+].[Na+].[Na+] [SODIUM CITRATE]
- inhibition [9]: Active
- pEC50 [1]: 2.60
- inhibition [10]: Active
- pEC50 [6]: 3.18

Compound: CC(=O)C(=O)O [PYRUVATE SODIUM]
- pEC50 [1]: 4.01
- pEC50 [6]: 3.41
